Source: US20240369576A1, “ASSAYS FOR ALPHA-DYSTROGLYCAN GLYCOSYLATION AND METHODS FOR USING SAME” (ML Bio Solutions Inc., priority 2023, published 2024)
“Also recorded” adds a separate entry of the source.

Columns and labels:
[1] = test system: αDG glycosylation in P448L mutant FKRP mice; assay: Multiplexed Western blot of total and glycosylated αDG in muscle of P448L mutant FKRP mice treated with 5% Ribitol; format: in vivo, mouse; details: 5% Ribitol treated P448L mice vs untreated P448L mice, heart muscle and TA lysates
Description: Murine Mouse Tissue: Murine muscle tissue samples from healthy, [MUT], and […] mutant mice were stored at -80° C. until analysis. Tissue Processing: Tissue samples were processed using a TissueLyzer IITM (Qiagen®). Approximately 250 milligrams (mg) of tissue was placed in a 2 mL microtube with a steel bead and 1 mL of Radioimmunoprecipitation assay buffer (RIPA) buffer supplemented with protease and phosphatase inhibitors. The microtubes were subjected to three cycles of disruption (2 minutes at 25 Hertz (Hz)) in the TissueLyzer IITM. Lysates were clarified by centrifugation and the supernatant was transferred to fresh tubes and protein concentration in lysate was determined using a BCA assay (Pierce®). […] The membrane was visualized on an Odyssey CLxTM imager (LiCorTM) and intensities of the 700 and 800 nm channels were recorded. […] Signal intensities were normalized to total protein and the ratio of 700 nm normalized signal/800 nm normalized signal was determined. Linear fits were assessed where applicable using the linear regression function of PrismTM. Statistical significance was determined using an unpaired t-test using PrismTM (e.g., using the p-value for the parameters slope and intercept). StainFree gel image is quantitated using ImageLabTM software to analyze the image from the ChemiDocTM Imaging System. […] Linear fits were assessed were applicable using a linear regression function. […]

glycosylated αDG = assay: Open label Phase 2 study of ribitol in LGMD2I/R9: glycosylated αDG in tibialis anterior biopsies by Western blot; format: in vivo, human
Description: Tissue Lysis and sample preparation: Tissue samples were processed in lysis buffer, supplemented with protease inhibitors. Total protein in lysate was determined by BCA (Thermo Fisher) for RIPA and protein 660 kit (Thermo Fisher) for SDS-Urea and tested at 60 μg for CP Heterozygous samples and 40 μg for Homozygous samples. Differential protein loading is used for different patients to compensate for patient deficits in glycosylated αDG. […] Loading additional protein helps compensate for this deficiency and allows the assay to detect lower-level ranges. This is further stratified by patient genotype: more severe patients require greater protein loading. Western Blotting: For detection of target proteins αDG-Total and αDG-Glycan, membrane was probed simultaneously with primary antibodies AF6868 alpha Dystroglycan (R&D Systems) and IIH6C4 alpha Dystroglycan (Millipore), followed by fluorescent secondary antibodies IR800CW Mouse Anti-Sheep and IR680 Goat Anti-Mouse secondary antibodies (LiCor). The membrane was visualized in Odyssey CLx imager (LiCor) and intensities of the 700 (αDG-Glycan, red bands) and 800 (αDG-Total, green bands) nm channels were recorded. […] Here, amounts of glycosylated and total αDG are determined using standard curves, and an interpolated ratio is computed by dividing the amount of glycosylated αDG to the amount of total αDG. Data Analysis: Integration boxes were drawn using Image Studio software with specific dimensions over molecular weight range for standards, test articles and control samples. Data analysis was done in Excel (Microsoft). […] Healthy positive control (HPC) at 10 μg was deployed to monitor assay performance. […] FIG. 12 schematically illustrates a workflow for the Western Blot method. Briefly, biopsies are collected from a subject at a desired timepoint and homogenized. Gel electrophoresis is performed, followed by membrane transfer and blocking. Sample is incubated with the primary antibody followed by the secondary antibody. Detection and analysis are subsequently performed. […] A broader region of 70-260 kDa was used in prior iterations of the assay, including that described in Example 2 herein. […] Multiple sections of a single healthy donor TA biopsy sample are homogenized and the resulting lysate is pooled together and stored in single use aliquots at −80° C. These aliquots are used to generate a standard curve which is used in every assay. In addition, a quality control of 10 μg lysate is used to assess assay performance by measuring interpolatability to the standard curve. Methods: This study is an open label dose escalation study of patients with LGMD2I/R9. Part 1 of the study involved three dose cohorts (6 g QD, 6 g BID and 12 g BID) treated for 3 months. During Parts 2 (target maximal dose) and 3 (ongoing OLE), all patients received 12 g BID, dose adjusted for lower weight. FIG. 17 schematically illustrates the details of the clinical study. Briefly, the study includes 3 parts: a 90 day dose escalation phase (Part 1), a 90 day maximum dose phase (Part 2), and a 24 month long term extension phase (Part 3). In Part 1, 14 total patients are studied across three cohorts (6 g QD, 6 g BID, and 12 g BID ribitol). After Part 1, all patients transition to the highest dose, 12 g BID ribitol. Dosing adjustments in Part 2 were as follows: for patients with weight >70 kg: 12 g BID; for patients with weight between 50-70 kg: 9 g BID; and for patients with weight between 30-50 kg: 6 g BID.

[2] = test system: serum creatine kinase (CK); assay: Open label Phase 2 study of ribitol in LGMD2I/R9: serum creatine kinase; format: in vivo, human
Description: (§1) Methods: This study is an open label dose escalation study of patients with LGMD2I/R9. Part 1 of the study involved three dose cohorts (6 g QD, 6 g BID and 12 g BID) treated for 3 months. During Parts 2 (target maximal dose) and 3 (ongoing OLE), all patients received 12 g BID, dose adjusted for lower weight. FIG. 17 schematically illustrates the details of the clinical study. Briefly, the study includes 3 parts: a 90 day dose escalation phase (Part 1), a 90 day maximum dose phase (Part 2), and a 24 month long term extension phase (Part 3). In Part 1, 14 total patients are studied across three cohorts (6 g QD, 6 g BID, and 12 g BID ribitol). After Part 1, all patients transition to the highest dose, 12 g BID ribitol. Dosing adjustments in Part 2 were as follows: for patients with weight >70 kg: 12 g BID; for patients with weight between 50-70 kg: 9 g BID; and for patients with weight between 30-50 kg: 6 g BID. Dosing adjustments in Part 3 were as follows: for patients with weight >50 kg: 12 g BID; and for patients with weight between 30-50 kg: 9 g BID. Key endpoints for the study include NSAD; 10 or 100 meter walk test; FVC; PUL2.0; glycosylated αDG levels; and serum creatine kinase (CK).

patients with LGMD2I/R9 [3] = assay: Open label Phase 2 study of ribitol in LGMD2I/R9: ambulatory and clinical measures (NSAD, 10MWT, 100MTT); format: in vivo, human; details: following 15 months of ribitol treatment, vs natural history decline
Description: as §1, with “Key inclusion criteria for the study include age between 12-55 years at enrollment; genetically confirmed LGMD2I/R9 diagnosis; body weight of at least 30 kg; and ability to complete a […] walk test in <12 seconds unaided for moderate disease, or unable to complete the 10MWT for severe disease. Key” for “Key”

patients with LGMD2I/R9 [4] = assay: Open label Phase 2 study of ribitol in LGMD2I/R9: safety and tolerability; format: in vivo, human
Description: Objectives: The Phase 2 study is intended to explore the safety and tolerability of ribitol. Additionally, the feasibility and usefulness of clinical efficacy and pharmacodynamic (PD) assessments in patients with LGMD2I receiving ascending doses of ribitol will be investigated.
Methods: This study is an open label dose escalation study of patients with LGMD2I/R9. Part 1 of the study involved three dose cohorts (6 g QD, 6 g BID and 12 g BID) treated for 3 months. During Parts 2 (target maximal dose) and 3 (ongoing OLE), all patients received 12 g BID, dose adjusted for lower weight.
FIG. 17 schematically illustrates the details of the clinical study. Briefly, the study includes 3 parts: a 90 day dose escalation phase (Part 1), a 90 day maximum dose phase (Part 2), and a 24 month long term extension phase (Part 3). In Part 1, 14 total patients are studied across three cohorts (6 g QD, 6 g BID, and 12 g BID ribitol). After Part 1, all patients transition to the highest dose, 12 g BID ribitol. Dosing adjustments in Part 2 were as follows: for patients with weight >70 kg: 12 g BID; for patients with weight between 50-70 kg: 9 g BID; and for patients with weight between 30-50 kg: 6 g BID. Dosing adjustments in Part 3 were as follows: for patients with weight >50 kg: 12 g BID; and for patients with weight between 30-50 kg: 9 g BID.
Key inclusion criteria for the study include age between 12-55 years at enrollment; genetically confirmed LGMD2I/R9 diagnosis; body weight of at least 30 kg; and ability to complete a […] walk test in <12 seconds unaided for moderate disease, or unable to complete the 10MWT for severe disease.

[5] = test system: alpha-DG glycosylation in LGMD2I mouse models; details: cited from earlier work
[6] = maximum change over 3-15 months of treatment, FIG. 19

Structure (SMILES): OC[C@@H](O)[C@@H](O)[C@@H](O)CO [ribitol, (2R,3S,4S)-Pentane-1,2,3,4,5-pentol]
- αDG expression (total αDG signal, ~50-250 kDa) ([1]; FIG. 6B): increased
- ratio of glycosylated αDG to total αDG ([1]; FIG. 6C): increased
- change in glycosylated αDG vs baseline (glycosylated αDG; LGMD2I/R9 patients, oral ribitol 6 g QD to 12 g BID, after 90 days, sustained over 15 months): approximate doubling; also recorded: approximately double
- levels of glycosylated αDG at 3 months (glycosylated αDG; Phase 2, 3 months, sustained over 15 months): increased
- change in glycosylated αDG by genotype (glycosylated αDG; both L276I homozygous and other FKRP genotype LGMD2I/R9 patients): Approximate doubling
- patients with a ≥100% increase (doubling) in glycosylated αDG levels vs pre-treatment (glycosylated αDG; [6]): 10 of 14
- patients with increased glycosylated αDG levels vs pre-treatment baseline (glycosylated αDG; [6]): 13 of 14
- αDG glycosylation in LGMD2I/R9 muscle biopsies (glycosylated αDG; treatment with ribitol, FIGS. 13A-13B): dramatically increases
- change in serum CK ([2]; after 3 months of treatment, FIG. 20): notable change
- sustained reduction in serum creatine kinase (CK) ([2]; over 15 months of ribitol treatment): > 75%
- 10MWT velocity (patients with LGMD2I/R9 [3]): improvements
- 100MTT (patients with LGMD2I/R9 [3]): improvements
- NSAD (patients with LGMD2I/R9 [3]): improvements
- 10MWT velocity (patients with LGMD2I/R9 [3]; listed as Ribitol): improvement
- 100MTT (patients with LGMD2I/R9 [3]; listed as Ribitol): improvement
- NSAD (patients with LGMD2I/R9 [3]; listed as Ribitol): improvement
- adverse events leading to discontinuation or interruption in therapy (patients with LGMD2I/R9 [4]; 15 months of treatment): No adverse event led to a discontinuation or interruption in therapy
- diarrhea, possibly or probably treatment-related (patients with LGMD2I/R9 [4]; 75% grade 1, 25% grade 2): 6 incidents
- treatment-related serious adverse events, dose limiting toxicities or discontinuations (patients with LGMD2I/R9 [4]; across a range of ribitol dose levels): no observed treatment-related serious adverse events, dose limiting toxicities or discontinuations
- nausea, possibly or probably treatment-related (patients with LGMD2I/R9 [4]; both grade 1): 2 incidents
- vomiting, possibly or probably treatment-related (patients with LGMD2I/R9 [4]; both grade 1): 2 incidents
- adverse events possibly or probably related to ribitol treatment (patients with LGMD2I/R9 [4]; during the course of the study): 12
- adverse events recorded (patients with LGMD2I/R9 [4]; during the course of the study, 14 patients): 136
- dehydration, possibly or probably treatment-related (patients with LGMD2I/R9 [4]; grade 1): 1 incident
- dyspepsia, possibly or probably treatment-related (patients with LGMD2I/R9 [4]; grade 1): 1 incident
- gastroenteritis, possibly or probably treatment-related (patients with LGMD2I/R9 [4]; grade 2): 1 incident
- headaches, possibly or probably treatment-related (patients with LGMD2I/R9 [4]; grade 2): 1 incident
- tolerability (patients with LGMD2I/R9 [4]; over 15 months of treatment): well-tolerated; also recorded: well tolerated
- severe adverse events (patients with LGMD2I/R9 [4]; unrelated to the treatment): 3
- alpha-DG glycosylation [5]: increase
